Measurements: patent US20070036874A1, “Compositions and methods for controlling glucose and lipid uptake from foods” (priority 2005, published 2007)

What was measured:
[1] = tested on: sodium dependent glucose transporter; details: in vitro study; cited from earlier work
[2] = biological target: T1, human pancreatic lipase (Homo sapiens, UniProt P16233); assay: lipase inhibition activity (USP units per mg); assay type: biochemical
T1 sequence (P16233 17-465): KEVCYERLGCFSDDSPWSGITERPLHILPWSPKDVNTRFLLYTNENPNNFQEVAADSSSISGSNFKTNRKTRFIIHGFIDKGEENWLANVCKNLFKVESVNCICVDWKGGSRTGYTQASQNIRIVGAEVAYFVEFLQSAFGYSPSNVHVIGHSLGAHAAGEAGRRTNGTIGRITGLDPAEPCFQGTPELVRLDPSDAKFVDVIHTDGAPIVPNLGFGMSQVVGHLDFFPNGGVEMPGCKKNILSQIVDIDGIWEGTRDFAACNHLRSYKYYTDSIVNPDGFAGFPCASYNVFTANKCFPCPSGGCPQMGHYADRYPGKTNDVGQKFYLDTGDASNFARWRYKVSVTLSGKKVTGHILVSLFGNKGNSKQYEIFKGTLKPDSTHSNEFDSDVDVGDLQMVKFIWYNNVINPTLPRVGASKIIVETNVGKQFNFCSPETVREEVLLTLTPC
Description: Polymerized catechins are prepared from fermented catechins. Tea catechins are incubated with polyphenol oxidase in a reaction tank for 60 to 120 minutes. The mixture is then extracted with ethyl acetate and dried. In particular embodiments, the extracts have at least 10 USP units human pancreatic lipase inhibition per mg.
LIPOTAME™, an exemplary polymerized catechin commercially available from NatureGen, has 11.62 USP units/mg of lipase inhibition activity, compared to 80 USP units/mg of lipase inhibition activity found in ORLISTAT®.

Compound | inhibition of the glucose uptake through incubated intestinal membranes [1] | lipase inhibition activity [2] [USP units/mg]
O=C(O[C@@H]1Cc2c(O)cc(O)cc2O[C@@H]1c1ccc(O)c(O)c1)c1cc(O)c(O)c(O)c1 [Epicatechin gallate] | up to 50% | 
CCCCCCCCCCC[C@@H](C[C@@H]1OC(=O)[C@H]1CCCCCC)OC(=O)[C@H](CC(C)C)NC=O [ORLISTAT®, Orlistat] |  | 80
